Data: ChEMBL document CHEMBL1201862, “PubChem BioAssay data set” (2004)
The source made the active and inactive calls.

What was measured:
[1] = biological target: T1, Caspase-3 (Homo sapiens, UniProt P42574); type: functional;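 further: Dose-response selectivity test against caspase-3 for candidate inhibitors of sentrin-specific proteases (SENPs)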
T1 sequence (P42574 whole entry): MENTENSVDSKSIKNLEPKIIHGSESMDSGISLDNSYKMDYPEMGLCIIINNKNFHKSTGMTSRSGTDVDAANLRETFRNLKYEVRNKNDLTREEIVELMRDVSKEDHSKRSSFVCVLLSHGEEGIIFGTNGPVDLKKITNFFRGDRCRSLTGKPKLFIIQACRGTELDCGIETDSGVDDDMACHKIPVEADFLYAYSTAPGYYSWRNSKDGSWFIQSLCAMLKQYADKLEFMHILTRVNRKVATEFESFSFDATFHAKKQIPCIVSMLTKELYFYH

[2] = biological target: T2, Sentrin-specific protease 8 (Homo sapiens, UniProt Q96LD8); type: functional;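 further: luminescence read-out of SENP8 inhibition, dose-response confirmation following an ultra-high-throughput screen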
T2 sequence (Q96LD8 whole entry): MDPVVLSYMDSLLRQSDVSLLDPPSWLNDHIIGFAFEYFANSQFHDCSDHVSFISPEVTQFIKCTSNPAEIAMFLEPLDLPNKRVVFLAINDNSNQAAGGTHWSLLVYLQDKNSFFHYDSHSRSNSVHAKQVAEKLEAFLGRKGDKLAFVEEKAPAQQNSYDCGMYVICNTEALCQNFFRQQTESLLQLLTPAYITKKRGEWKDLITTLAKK

[3] = biological target: T3, Protein RecA (Mycobacterium tuberculosis, UniProt P9WHJ3); test: Fluorescence Cell-Free Homogeneous Dose Retest to Identify Inhibitors of RecA-Intein Splicing Activity. [Related pubchem assays (depositor defined):AID2097, AID2223, AID489010, AID492950]; type: functional
T3 sequence (P9WHJ3 whole entry): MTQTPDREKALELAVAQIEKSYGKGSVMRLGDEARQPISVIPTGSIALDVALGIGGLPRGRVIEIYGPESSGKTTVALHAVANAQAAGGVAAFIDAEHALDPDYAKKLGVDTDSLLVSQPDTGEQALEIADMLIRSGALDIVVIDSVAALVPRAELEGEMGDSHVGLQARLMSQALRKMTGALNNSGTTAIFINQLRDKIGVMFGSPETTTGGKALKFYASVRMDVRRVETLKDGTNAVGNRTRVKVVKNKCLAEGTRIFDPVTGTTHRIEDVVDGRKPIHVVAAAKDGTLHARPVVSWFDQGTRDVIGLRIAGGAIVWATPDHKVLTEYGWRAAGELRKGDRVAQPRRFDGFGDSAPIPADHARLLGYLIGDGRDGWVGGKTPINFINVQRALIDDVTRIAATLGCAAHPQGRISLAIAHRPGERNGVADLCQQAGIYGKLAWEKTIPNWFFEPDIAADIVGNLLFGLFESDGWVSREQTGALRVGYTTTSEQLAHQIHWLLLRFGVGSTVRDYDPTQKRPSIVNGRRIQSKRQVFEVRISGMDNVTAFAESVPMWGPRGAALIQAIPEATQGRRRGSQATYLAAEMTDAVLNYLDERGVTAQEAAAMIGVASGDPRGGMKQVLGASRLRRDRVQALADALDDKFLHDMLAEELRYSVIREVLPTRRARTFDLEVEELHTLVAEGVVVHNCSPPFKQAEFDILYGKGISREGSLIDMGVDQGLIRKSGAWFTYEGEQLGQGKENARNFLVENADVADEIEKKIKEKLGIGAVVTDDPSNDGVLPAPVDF

[4] = biological target: T4, Replicative DNA helicase DnaB (Mycobacterium tuberculosis, UniProt P9WMR3); test: DnaB intein splicing inhibitors, dose response, biochemical, cell-free fluorescence (AID 449749); type: functional
T4 sequence (P9WMR3 whole entry): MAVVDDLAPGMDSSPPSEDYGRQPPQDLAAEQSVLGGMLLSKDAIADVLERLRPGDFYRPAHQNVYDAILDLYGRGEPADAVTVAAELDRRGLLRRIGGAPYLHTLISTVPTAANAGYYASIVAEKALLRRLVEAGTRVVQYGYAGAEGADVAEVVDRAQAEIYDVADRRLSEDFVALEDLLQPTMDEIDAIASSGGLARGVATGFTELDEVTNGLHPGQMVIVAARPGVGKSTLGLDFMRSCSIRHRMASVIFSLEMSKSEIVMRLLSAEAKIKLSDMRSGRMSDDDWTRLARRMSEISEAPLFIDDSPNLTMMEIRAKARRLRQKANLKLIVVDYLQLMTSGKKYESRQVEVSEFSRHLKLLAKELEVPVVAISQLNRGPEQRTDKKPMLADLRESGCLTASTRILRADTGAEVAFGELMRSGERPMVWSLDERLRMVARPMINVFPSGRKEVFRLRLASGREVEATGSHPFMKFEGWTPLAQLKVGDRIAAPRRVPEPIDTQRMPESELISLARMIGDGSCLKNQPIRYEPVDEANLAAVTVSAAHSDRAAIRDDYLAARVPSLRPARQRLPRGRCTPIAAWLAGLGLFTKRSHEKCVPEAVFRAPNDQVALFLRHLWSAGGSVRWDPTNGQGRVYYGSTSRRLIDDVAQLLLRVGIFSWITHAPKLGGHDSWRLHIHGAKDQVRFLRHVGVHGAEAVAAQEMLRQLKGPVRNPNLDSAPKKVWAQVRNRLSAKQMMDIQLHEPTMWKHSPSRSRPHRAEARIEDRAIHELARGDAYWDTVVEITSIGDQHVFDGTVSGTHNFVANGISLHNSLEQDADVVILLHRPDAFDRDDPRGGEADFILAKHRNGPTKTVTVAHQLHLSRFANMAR

[5] = biological target: T5, Streptokinase A (Streptococcus pyogenes serotype M1, UniProt P10520); test: viability-normalized secreted streptokinase activity reduction – plasminogen activation absorbance, OD405, dose response (AID 1914); type: functional, Streptococcus pyogenes M1 GAS;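 further: secreted streptokinase activity via plasminogen activation per viability signal from cell pellet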
T5 sequence (P10520 whole entry): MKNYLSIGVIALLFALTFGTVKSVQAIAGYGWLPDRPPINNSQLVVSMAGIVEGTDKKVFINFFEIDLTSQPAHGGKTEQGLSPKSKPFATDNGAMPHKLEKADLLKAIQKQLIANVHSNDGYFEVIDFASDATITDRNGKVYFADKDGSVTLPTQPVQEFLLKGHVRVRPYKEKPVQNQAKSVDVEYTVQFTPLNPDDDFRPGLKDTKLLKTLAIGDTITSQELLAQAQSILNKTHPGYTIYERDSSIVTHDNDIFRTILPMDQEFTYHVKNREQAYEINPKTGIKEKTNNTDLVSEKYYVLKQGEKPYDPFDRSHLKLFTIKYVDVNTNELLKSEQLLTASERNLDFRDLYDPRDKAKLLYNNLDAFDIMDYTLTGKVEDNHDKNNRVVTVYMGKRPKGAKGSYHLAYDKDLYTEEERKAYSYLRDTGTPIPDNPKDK

CCCC[n+]1ccn(C2=C([N-]S(=O)(=O)c3ccc(Cl)cc3)C(=O)c3ccccc3C2=O)c1
active: IC50 [1] 55.7 µM | IC50 [2] 38.2 µM

CC(=O)c1cccc2c1N=C(c1[nH]c3ccccc3c1O)C2=O
active: IC50 [1] 11.1 µM | EC50 [3] 2.76 µM | AC50 [4] 3.1 µM | EC50 [5] 116 µM | IC50 [2] 12.3 µM

CCC1CCCCN1S(=O)(=O)c1ccc(NC(=O)c2nc(S(C)(=O)=O)ncc2Cl)cc1 (stereo not given)
active: EC50 [3] 1.11 µM | AC50 [4] 1.43 µM | EC50 [5] 0.66 µM
